Assay results from US20120107854A1, “REAGENT FOR MEASUREMENT OF CHOLINESTERASE ACTIVITY” (NATIONAL INSTITUTE OF RADIOLOGICAL SCIENCES, priority 2009, published 2012).

Assays:
[1] = molecular target: purified human butyrylcholinesterase (Homo sapiens, UniProt P06276); assay: Hydrolysis rate with purified human butyrylcholinesterase by the Ellman method; format: biochemical; conditions: for hydrolysis rate with butyrylcholinesterase compared with spontaneous hydrolysis in the buffer solution: comparison of Table 1 values; for hydrolysis rate with Butyrylcholinesterase (change in absorbance per minute): phosphate buffer 0.1 M pH 7.4, 0.1% Tween 20, absorbance at 412 nm, measured three times, average ± standard deviation
Method: (§1) To investigate the hydrolysis rate and specificity of each of (1a) and (2a), the hydrolysis rate in a solution of each of purified human acetylcholinesterase and purified human butyrylcholinesterase was measured by the Ellman method, and was compared with those of acetyl thiocholine and acetyl-[…]. To 3 ml of a solution of each enzyme whose concentration was adjusted with a phosphate buffer (0.1 M, pH 7.4) containing 0.1% of Tween 20, 0.1 ml of a solution (5 mM) of 5,5′-dithio-bis(2-nitrobenzoic acid) was added. To these mixtures, the substrates were respectively added in an amount of 0.02 ml (75 mM), and the absorbance (mAbs) at a wavelength of 412 nm was measured.
(§2) The values in the Table represent the changes in absorbance per minute measured three times in the form of average value±standard deviation.

[2] = Spontaneous hydrolysis rate in the buffer solution (Ellman method); format: physicochemical; conditions: buffer solution without enzyme; absorbance at 412 nm; measured three times, average ± standard deviation
[3] = molecular target: purified human acetylcholinesterase (Homo sapiens, UniProt P22303); format: biochemical; conditions: for hydrolysis rate with Acetylcholinesterase (change in absorbance per minute): phosphate buffer 0.1 M pH 7.4, 0.1% Tween 20, absorbance at 412 nm, measured three times, average ± standard deviation; for specificity for acetylcholinesterase: acetylcholinesterase versus butyrylcholinesterase hydrolysis; for reaction order of the hydrolysis rate (time dependence): at the substrate concentration, change with time showed good linearity; for reaction order of the hydrolysis rate (time dependence) / change in absorbance at 412 nm with time: FIG. 1; for substrate quality for acetylcholinesterase: hydrolysis rate lower than acetyl thiocholine and acetyl-δ methyl-thiocholine; for change in absorbance at 412 nm with time: in 120 minutes, acetylcholinesterase
Method: as §1, §2
The values represent the absorbance (Abs) measured three times in the form of average value±standard deviation.

purified human acetylcholinesterase, sequence (P22303 32-614): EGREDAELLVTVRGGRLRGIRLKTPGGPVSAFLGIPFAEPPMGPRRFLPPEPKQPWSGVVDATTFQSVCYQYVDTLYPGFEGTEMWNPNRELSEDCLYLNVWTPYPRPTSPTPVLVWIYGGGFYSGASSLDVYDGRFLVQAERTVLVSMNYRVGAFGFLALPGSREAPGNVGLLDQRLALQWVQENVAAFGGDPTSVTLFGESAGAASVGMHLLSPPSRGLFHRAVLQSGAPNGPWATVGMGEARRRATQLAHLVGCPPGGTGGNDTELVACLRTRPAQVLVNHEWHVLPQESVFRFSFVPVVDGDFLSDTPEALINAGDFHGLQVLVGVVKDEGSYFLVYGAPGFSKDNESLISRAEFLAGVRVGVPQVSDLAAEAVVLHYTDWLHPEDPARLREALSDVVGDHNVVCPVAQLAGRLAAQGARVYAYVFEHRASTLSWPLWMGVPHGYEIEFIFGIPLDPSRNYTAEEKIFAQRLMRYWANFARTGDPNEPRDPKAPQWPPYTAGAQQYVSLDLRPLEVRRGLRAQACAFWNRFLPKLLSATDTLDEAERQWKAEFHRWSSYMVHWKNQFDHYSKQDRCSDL
purified human butyrylcholinesterase, sequence (P06276 29-602): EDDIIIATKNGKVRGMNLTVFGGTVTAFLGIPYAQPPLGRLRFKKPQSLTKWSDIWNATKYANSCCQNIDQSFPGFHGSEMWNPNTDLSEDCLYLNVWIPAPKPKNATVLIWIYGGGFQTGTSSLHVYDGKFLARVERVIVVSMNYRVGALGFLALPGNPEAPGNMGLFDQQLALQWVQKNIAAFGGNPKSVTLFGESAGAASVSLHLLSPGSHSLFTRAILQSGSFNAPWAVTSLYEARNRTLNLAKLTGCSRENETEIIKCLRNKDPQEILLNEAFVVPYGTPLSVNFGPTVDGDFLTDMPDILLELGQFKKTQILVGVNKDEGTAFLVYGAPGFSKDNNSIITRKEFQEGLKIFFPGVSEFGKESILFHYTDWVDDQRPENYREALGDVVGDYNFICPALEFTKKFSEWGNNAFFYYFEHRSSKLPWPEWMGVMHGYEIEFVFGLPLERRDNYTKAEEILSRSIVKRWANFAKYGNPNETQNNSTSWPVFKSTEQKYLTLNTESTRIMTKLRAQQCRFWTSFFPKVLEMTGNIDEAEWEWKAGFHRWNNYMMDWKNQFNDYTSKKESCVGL

Row | Structure (SMILES) | hydrolysis rate with butyrylcholinesterase compared with spontaneous hydrolysis in the buffer solution [1] | hydrolysis rate with Butyrylcholinesterase (change in absorbance per minute) [1] | spontaneous hydrolysis rate (change in absorbance per minute) [2] | hydrolysis rate with Acetylcholinesterase (change in absorbance per minute) [3] | specificity for acetylcholinesterase [3] | reaction order of the hydrolysis rate (time dependence) [3] | substrate quality for acetylcholinesterase [3] | change in absorbance at 412 nm with time [3]
1 | CC(=O)SC(C)C[N+](C)(C)C (stereo not drawn) [Acetyl-β methyl-thiocholine, reference compound] | significantly higher | 7.1 ± 0.22 ΔmAbs/minute | 0.48 ± 0.020 ΔmAbs/minute | 29 ± 0.24 ΔmAbs/minute | – | – | – | –
2 | CC(=O)SCC1CCN(C)CC1 [Compound (1a), 1-methylpiperidin-4-ylmethyl acetyl sulfide] | did not show any significant difference | 0.47 ± 0.026 ΔmAbs/minute | 0.47 ± 0.0096 ΔmAbs/minute | 3.7 ± 0.098 ΔmAbs/minute | extremely highly specific | consistent with the zero-order reaction | good substrates for acetylcholinesterase | approximately 0.4 Abs
3 | CC(=O)SCC1CC[N+](C)(C)CC1 [Compound (2a), 1,1-dimethylpiperidin-4-ylmethyl acetyl sulfide] | did not show any significant difference | 0.15 ± 0.0077 ΔmAbs/minute | 0.13 ± 0.027 ΔmAbs/minute | 3.1 ± 0.15 ΔmAbs/minute | extremely highly specific | consistent with the zero-order reaction | good substrates for acetylcholinesterase | approximately 0.4 Abs
